Results: article PMC6803965, “A New Class of β–Pyrrolidino-1,2,3-Triazole Derivatives as β-Adrenergic Receptor Inhibitors: Synthesis, Pharmacological, and Docking Studies” (Molecules, 2019)
In brackets after ≈: the same amount, converted by molar mass. Like-named read-outs stand apart in the source and are kept apart here.

Tests used:
Staphylococcus aureus [1] = test: Minimum inhibitory concentration (MIC); assay type: cell-based; conditions: read-out: Minimum inhibitory concentration
Method: (§1) The MIC experiment was carried out according to the standard reference methods. Briefly, the required concentrations of synthesized compounds 5a–l were dissolved in DMSO (Dimethylsulfoxide) in concentrations of 500 µg/mL, 250 µg/mL, 125 µg/mL, 62.5 µg/mL, 31.25 µg/mL, 15.6 µg/mL, and […]. An inoculum of 100 µL from each well (96-well plate) was inoculated. For the positive control, ketoconazole (fungi) and streptomycin (bacteria) was used. The MIC values for the tested bacteria were identified as the lowest inhibiting concentration of compound on the agar plate in visual growth.

Micrococcus luteus [2] = test: Minimum inhibitory concentration (MIC); assay type: cell-based; conditions: read-out: Minimum inhibitory concentration
Method: as §1

Salmonella typhimurium [3] = test: Minimum inhibitory concentration (MIC); assay type: cell-based; conditions: Salmonella enterica, read-out: Minimum inhibitory concentration
Method: as §1

Enterobacter aerogenes [4] = test: Minimum inhibitory concentration (MIC); assay type: cell-based; conditions: Klebsiella aerogenes, read-out: Minimum inhibitory concentration
Method: as §1

Klebsiella pneumoniae [5] = test: Minimum inhibitory concentration (MIC); assay type: cell-based; conditions: read-out: Minimum inhibitory concentration
Method: as §1

Proteus vulgaris [6] = test: Minimum inhibitory concentration (MIC); assay type: cell-based; conditions: read-out: Minimum inhibitory concentration
Method: as §1

[7] = tested on: Staphylococcus aureus-MRSA; test: Minimum inhibitory concentration (MIC); assay type: cell-based; conditions: read-out: Minimum inhibitory concentration
Method: as §1

Shigella flexneri [8] = test: Minimum inhibitory concentration (MIC); assay type: cell-based
Method: as §1

Salmonella paratyphi-B [9] = test: Minimum inhibitory concentration (MIC); assay type: cell-based
Method: as §1

[10] = tested on: Staphylococcus epidermidis; test: Minimum inhibitory concentration (MIC); assay type: cell-based; conditions: read-out: Minimum inhibitory concentration
Method: as §1

Staphylococcus aureus [11] = test: Antimicrobial well method, zone of inhibition; assay type: cell-based
Method: (§2) Antimicrobial activity was carried out as described previously. Briefly, 20 mL of sterile Mueller Hinton agar (MHA) was poured in the petri plates and kept for solidification. After solidification, the test cultures were swabbed on the top of the media and kept for 10 min to dry. The required concentration (1 mg/well) of synthesized compounds 5a–l was added to each well and left for 30 min at RT for compound diffusion. Ketoconazole (fungi) and streptomycin (bacteria) used for positive controls. The zone of inhibition was recorded in mm and the experiment was repeated twice.

Micrococcus luteus [12] = test: Antimicrobial well method, zone of inhibition; assay type: cell-based
Method: as §2

Malassezia pachydermatis = test: Antimicrobial well method, zone of inhibition; assay type: cell-based
Method: as §2

Salmonella typhimurium [13] = test: Antimicrobial well method, zone of inhibition; assay type: cell-based; conditions: Salmonella enterica
Method: as §2

Enterobacter aerogenes [14] = test: Antimicrobial well method, zone of inhibition; assay type: cell-based; conditions: Klebsiella aerogenes
Method: as §2

Klebsiella pneumoniae [15] = test: Antimicrobial well method, zone of inhibition; assay type: cell-based
Method: as §2

Proteus vulgaris [16] = test: Antimicrobial well method, zone of inhibition; assay type: cell-based
Method: as §2

[17] = tested on: Staphylococcus aureus-MRSA; test: Antimicrobial well method, zone of inhibition; assay type: cell-based
Method: as §2

Shigella flexneri [18] = test: Antimicrobial well method, zone of inhibition; assay type: cell-based
Method: as §2

Salmonella paratyphi-B [19] = test: Antimicrobial well method, zone of inhibition; assay type: cell-based
Method: as §2

Candida albicans = test: Antimicrobial well method, zone of inhibition; assay type: cell-based; conditions: 1 mg/well
Method: as §2

[20] = tested on: Staphylococcus epidermidis; test: Antimicrobial well method, zone of inhibition; assay type: cell-based
Method: as §2

tested bacteria = test: Antimicrobial well method, result in words; assay type: cell-based; conditions: 1 mg/mL concentration
Method: as §2

IMR90 cells = test: Cytotoxicity on normal cells, MTT; assay type: cell-based; conditions: IMR-90, human normal IMR90 cells, 24 h treatment, read-out: IC50 against IMR90
Method: (§3) The cytotoxic study was carried out as reported previously. Briefly, IMR90, HepG-2, and A549 cells were grown in DMEM (Dulbecco’s Modified Eagle Medium) that contained 10% fetal bovine serum and 1% antibiotics. A total of 15 × 10^3 cells/well were seeded in 96-well plates and incubated under humidified conditions. Cells were treated with varying concentrations of synthesized triazoles for 24 h. After a 24 h treatment, 20 µL aqueous one solution reagent was added to each well and incubated for 3–4 h under a humidified condition. For IMR90 cells, MTT (MTT = 3-(4,5-dimethyl-2-thiazolyl)-2,5-diphenyl-2H-tetrazolium bromide) (5 mg/mL) was added and incubated for 3–4 h in the dark. After incubation, 100 µL of a 10% SDS (Sodium Dodecyl Sulfate) solution (0.01% HCl) was added to each well. The data was taken using an ELISA (enzyme-linked immunosorbent assay) reader at the absorbance of 490 nm for HepG-2 and A549 cells and 570 nm for IMR90 cells. The cell death was calculated using the following formula: Inhibition (%) = ((A − B)/A) × 100 (A—control group, B—treated group).

A549 cells = test: Cytotoxicity, aqueous one solution reagent; assay type: cell-based; conditions: for IC50: Homo sapiens, 24 h treatment, read-out: IC50 against A549
Method: as §3

HepG-2 cells = test: Cytotoxicity, aqueous one solution reagent; assay type: cell-based; conditions: for IC50: Homo sapiens, HepG2, 24 h treatment, read-out: IC50 against HepG-2
Method: as §3

SMILES	MIC (Staphylococcus aureus [1]) [µg/mL]	MIC (Micrococcus luteus [2]) [µg/mL]	MIC (Klebsiella pneumoniae [5]) [µg/mL]	MIC (Proteus vulgaris [6]) [µg/mL]	MIC (Shigella flexneri [8]) [µg/mL]	MIC (Salmonella paratyphi-B [9]) [µg/mL]	MIC [10] [µg/mL]	zone of inhibition at 1 mg/well (Staphylococcus aureus [11]) [mm]	zone of inhibition at 1 mg/well (Micrococcus luteus [12]) [mm]	zone of inhibition at 1 mg/well (Salmonella typhimurium [13]) [mm]	zone of inhibition at 1 mg/well (Enterobacter aerogenes [14]) [mm]	zone of inhibition at 1 mg/well (Klebsiella pneumoniae [15]) [mm]	zone of inhibition at 1 mg/well (Proteus vulgaris [16]) [mm]	zone of inhibition at 1 mg/well [17] [mm]	zone of inhibition at 1 mg/well (Shigella flexneri [18]) [mm]	zone of inhibition at 1 mg/well (Salmonella paratyphi-B [19]) [mm]	zone of inhibition at 1 mg/well [20] [mm]	antimicrobial activity against tested bacteria (tested bacteria)	IC50 (IMR90 cells) [µM]	cytotoxic / anticancer activity against A549 cells (A549 cells)	also measured
C[C@@H]([C@@H](c1ccccc1)n1cc(CO)nn1)N1CCCC1 [5a, (1R,2S)-1-(1-(1-Phenyl-2-(pyrrolidin-1-yl)propyl)-1H-1,2,3-triazol-4-yl)methanol]	500 (≈ 1750 µM)	31.2 (≈ 109 µM)	62.5 (≈ 218 µM)	125 (≈ 436 µM)	62.5 (≈ 218 µM)	250 (≈ 873 µM)	250 (≈ 873 µM)	12	28	14	14	20	17	13	22	14	14	promising activity	> 250	promising anticancer activity	MIC (Salmonella typhimurium [3]; Salmonella typhimurium): 250 µg/mL (≈ 873 µM); MIC (Enterobacter aerogenes [4]; Enterobacter aerogenes): 250 µg/mL (≈ 873 µM); MIC ([7]; Staphylococcus aureus-MRSA): 250 µg/mL (≈ 873 µM); zone of inhibition at 1 mg/well (Malassezia pachydermatis): 12 mm; zone of inhibition (Candida albicans): 14 mm; IC50 (A549 cells): 190 ± 1.35 µM; cytotoxic activity against HepG-2 cells (HepG-2 cells): moderate activity; IC50 (HepG-2 cells): 275 ± 1.52 µM
C[C@@H]([C@@H](c1ccccc1)n1cc(COC(=O)c2ccc([N+](=O)[O-])cc2)nn1)N1CCCC1 [5g, (1R,2S)-(1-(1-Phenyl-2-(pyrrolidin-1-yl)propyl)-1H-1,2,3-triazol-4-yl)methyl 4-nitrobenzoate]	125 (≈ 287 µM)	125 (≈ 287 µM)	31.2 (≈ 71.8 µM)	31.2 (≈ 71.8 µM)	31.2 (≈ 71.8 µM)	62.5 (≈ 144 µM)	31.2 (≈ 71.8 µM)	16	17	22	22	24	26	24	25	20	28	promising activity	> 250	promising anticancer activity	MIC (Salmonella typhimurium [3]; TYPHIMURIUM): 62.5 µg/mL (≈ 144 µM); MIC (Enterobacter aerogenes [4]): 62.5 µg/mL (≈ 144 µM); MIC ([7]; Staphylococcus, MRSA): 31.2 µg/mL (≈ 71.8 µM); zone of inhibition (Candida albicans): 13 mm; IC50 (A549 cells): 72 ± 3.21 µM; IC50 (HepG-2 cells): > 300 µM
COc1ccc(C(=O)OCc2cn([C@H](c3ccccc3)[C@H](C)N3CCCC3)nn2)cc1OC [5h, (1R,2S)-(1-(1-Phenyl-2-(pyrrolidin-1-yl)propyl)-1H-1,2,3-triazol-4-yl)methyl-3,4-dimethoxy-benzoate]	250 (≈ 555 µM)	250 (≈ 555 µM)	62.5 (≈ 139 µM)	62.5 (≈ 139 µM)	125 (≈ 277 µM)	62.5 (≈ 139 µM)	125 (≈ 277 µM)	15	14	22	17	20	23	20	18	19	16	promising activity	> 250	promising anticancer activity	MIC (Salmonella typhimurium [3]; TYPHIMURIUM): 62.5 µg/mL (≈ 139 µM); MIC (Enterobacter aerogenes [4]): 125 µg/mL (≈ 277 µM); MIC ([7]; Staphylococcus, MRSA): 62.5 µg/mL (≈ 139 µM); IC50 (A549 cells): 58 ± 2.31 µM; IC50 (HepG-2 cells): 73 ± 3.88 µM
Cc1cccc(C(=O)OCc2cn([C@H](c3ccccc3)[C@H](C)N3CCCC3)nn2)c1 [5j, (1R,2S)-(1-(1-Phenyl-2-(pyrrolidin-1-yl)propyl)-1H-1,2,3-triazol-4-yl)methyl 3-methylbenzoate]	250 (≈ 618 µM)	125 (≈ 309 µM)	62.5 (≈ 155 µM)	62.5 (≈ 155 µM)	62.5 (≈ 155 µM)	125 (≈ 309 µM)	250 (≈ 618 µM)	15	16	20	–	22	20	14	22	18	14	promising activity	> 250	promising anticancer activity	MIC (Salmonella typhimurium [3]; TYPHIMURIUM): 62.5 µg/mL (≈ 155 µM); MIC ([7]; Staphylococcus aureus-MRSA): 250 µg/mL (≈ 618 µM); zone of inhibition at 1 mg/well (Malassezia pachydermatis): 11 mm; zone of inhibition (Candida albicans): 13 mm; IC50 (A549 cells): 111 ± 1.82 µM; IC50 (HepG-2 cells): > 300 µM
C[C@@H]([C@@H](c1ccccc1)n1cc(COC(=O)c2ccccc2Cl)nn1)N1CCCC1 [5k, (1R,2S)-(1-(1-Phenyl-2-(pyrrolidin-1-yl)propyl)-1H-1,2,3-triazol-4-yl)methyl 2-chlorobenzoate]	125 (≈ 294 µM)	–	250 (≈ 588 µM)	125 (≈ 294 µM)	125 (≈ 294 µM)	125 (≈ 294 µM)	–	18	–	15	22	14	16	17	17	18	–	promising activity	–	–	MIC (Salmonella typhimurium [3]; Salmonella typhimurium): 250 µg/mL (≈ 588 µM); MIC (Enterobacter aerogenes [4]; Enterobacter aerogenes): 62.5 µg/mL (≈ 147 µM); MIC ([7]; Staphylococcus, MRSA): 125 µg/mL (≈ 294 µM); melting point: 101 to 102 °C
